Each structure is given as a SMILES string.

Series [1] has as its system Menin-inhibitor resistant cell lines (MV-4;11 M327I, T349M). As to the kind of experiment: Relative growth of Menin-inhibitor resistant MV-4;11 cell lines. The format is cell-based, human. The following applies: resistance mutations M327I and T349M; 50 nM or 100 nM PR-957; FIG. 4L. As for the experimental part:
MOLM-13, MONO-MAC-6, THP-1, KOPN-8, ML-2, MV-4;11, OCI-AML3, U-937, KASUMI-1, K-562, HL-60 and LAMA-84 cells were purchased from DSMZ (Braunschweig, Germany). Cas9-Blast cell lines are subclones of the respective cell lines and stably transduced with lentiCas9-Blast (Addgene plasmid #52962). Cells were cultured in RPMI 1640 medium (Thermo Fisher Scientific, Waltham, MA, USA) supplemented with 10-20% FBS (Thermo Fisher Scientific) in a humid atmosphere of 5% CO2 at 37° C. MV4;11 cells harboring Menin-inhibitor resistance mediating mutations of Menin were generated by CRISPR-Cas9 technology.

The subject of series [2] is MLL-AF9 driven leukemia. As to the kind of experiment: Secondary transplantation of bone marrow from in vivo treated MLL-AF9 mice. On the set-up: species or system mouse. The following applies: p<0.0001. As for the experimental part:
For induction of MLL-AF9 (MA9) driven leukemia we used established retroviral MSCV-GFP-based vectors to express MA9 in hematopoietic stem- and progenitor cells (Lineage-negative, Sca1-positive, Kit-positive [LSK] cells). In detail, bone marrow (BM) of LMP7+/+ or LMP7−/− littermates was isolated following standard procedures from 6-12-weeks-old mice. Lineage-depletion was performed using Streptavidin Particles Plus-DM (BD Biosciences, Heidelberg, Germany) and a DynaMag magnet (Thermo Fisher Scientific). Lineage-depleted cells were stained with streptavidin BV421, KIT AF647 and Sca-1 FITC or PE antibodies (all antibodies were received from Biolegend, San Diego, CA, USA) and then used for cell sorting. […] Cells were analyzed 48 hours after first infection for GFP-expression using flow cytometry and 7.5×10^4 GFP+ cells were injected into sublethally irradiated (7 Gy, single dose) primary recipient mice (C57BL/6J; females). […]
To characterize the effects of LMP7/PSMB8 inhibition in more detail, differentiation following PR-957 treatment was assessed. […] Next, the frequency of L-GMP (Lin− c-kit+ Sca1− CD34+ FcgR+) was assessed by flow cytometry, which have been described as the functionally relevant LSC population in MLL-AF9 driven leukemia. […]

Series [3] concerns AML1-ETO. As to the kind of experiment: Methylcellulose colony-forming assay, AML1-ETO transduced murine cells. The format is cell-based, mouse. The following applies: 100 nM or 200 nM; FIG. 2A right panel. As for the experimental part:
Primary mouse bone marrow (BM) cells (transduced with MLL-AF9/KRAS, MLL-AF6, or AML1-ETO/KRAS) were seeded in MethoCult GF M3434 (StemCell Technologies) at a concentration of 1×10^3 cells/replicate. Colonies propagated in culture were scored at day 8. For re-plating of primary mouse BM cells, colonies were harvested from the methylcellulose medium, washed with PBS/1% FBS and seeded again at a concentration of 1×10^3 cells/replicate. MOLM-13 or ML-2 cells infected with either control or PSMB8/LMP7-specific shRNAs were plated at a concentration of 1×10^3 cells in MethoCult H4230 (StemCell Technologies) supplemented with 20% FBS and colony numbers were counted on day 10-14.

In series [4] the test system is normal hematopoietic cells. In words: Normal hematopoiesis: competitive transplantation after in vivo PR-957 treatment. On the set-up: species or system mouse.

Turning to `COc1ccc(C[C@H](NC(=O)[C@H](C)NC(=O)CN2CCOCC2)C(=O)N[C@@H](Cc2ccccc2)C(=O)[C@]2(C)CO2)cc1` [PR-957, (2S)-3-(4-methoxyphenyl)-N-[(2S)-1-[(2S)-2-methyloxiran-2-yl]-1-oxo-3-phenylpropan-2-yl]-2-[[(2S)-2-[(2-morpholin-4-ylacetyl)amino]propanoyl]amino]propanamide], the “sensitivity of Menin-inhibitor resistant cell lines to immunoproteasome inhibition” value in series [1] is “preserved sensitivity”. The “median survival of secondary recipients” value in series [2] (recipients of PR-957 treated cells, control 21 days, FIG. 2G) was 39.5 days. Besides, in series [2] (two weeks after transplantation of bone marrow of treated mice, FIG. 2F), the “leukemic cells in the peripheral blood (GFP+ WBC) of secondary recipients” value was 1.6 Gpt/L. Besides, the “reduction of clonogenic potential, non-MLL fusion oncogene AML1-ETO” value in series [3] was “not detectable”. Further, in series [4] (PR-957 for 3 weeks (10 mg/kg, 5 days/week), FIGS. 2K,L,M), the “hematopoietic stem- and progenitor cell abundance” value is “did not show any changes”. For the same compound, the “stem- and progenitor cell chimerism in secondary recipients” value in series [4] (previous PR-957 treatment, FIGS. 2O,P,Q) is “not affected”. Further, in series [4] (until week 16, FIG. 2N), the “peripheral blood chimerism in secondary recipient mice” value was “no changes”.
